This is an account of results in patent publication US20080021015A1, “Use as medicine of a compound restoring active principles in vivo” (DOSPHARMA, priority 2000, published 2008).

The conditions of data set [1]: rat, in vivo, po, 50 mg/kg.
The next data set concerns primary hepatocytes. The data set is described as follows: In vitro toxicity assay on primary hepatocytes.
For data set [2], the system named is rats treated with streptozotocin. The data set is described as follows: Antidiabetic activity in rats made diabetic with streptozotocin. Type of data set: in vivo, rat. The conditions noted are these: streptozotocin (50 mg/kg, IP) rats; for hyperglycaemia after treatment: after administration of 30 mg/kg; for hyperglycaemia before treatment: starting value, 30 mg/kg group. The protocol: (§1) The antidiabetic activity was studied, from the pharmacological point of view, on two models of rats made diabetic.
The first model consisted in treating the rats with streptozotocin (50 mg/kg, IP), this being a compound which induces an increase in glycaemia, which increases from 5.5 mM to 12-14 mM in 21 days.

Data set [3] has as its system rats given fructose at 10% in the drinking water. The conditions noted are these: fructose 10% in drinking water, equivalent dose of metformin base. Here is the method:
as §1
The second study is carried out with the administration of fructose at 10% in the drinking water of the rats.

Structures can show the parent of a compound that is named as a salt.

Description for primary hepatocytes: A method for culturing primary hepatocytes over a period of 96 hours is used (see Biochemical Pharmacology, vol. 50, 1995, pp. 775-780). The hepatocytes are isolated in situ by collagen profusion. They are then placed in a Williams medium supplemented with foetal calf serum, with cortisol and with glutamine, in a proportion of 1 million cells per well. Increasing and toxic concentrations of A and C, and of A′ ? […] C′ are then added to each well. Samples are taken up after 6 h, 12 h, 24 h, 48 h and 96 h and the viability of the cells is determined with a methylene blue test, by albumin expression, by hepatocyte apoptosis and by measuring cytochrome P450 activity.

As to `CN(C)C(=N)N=C(N)N` [metformin hydrochloride], in data set [1], the concentration peak was determined as 3900 ng/mL and the “time of concentration peak” value was at most 90 min.

For the compound `CN(C)C(=N)NC(=N)N` [metformin, N,N-dimethylimidodicarbonimidic diamide], the toxic dose in the data set on primary hepatocytes is recorded as 10^−2 M. In data set [2], this compound registered a hyperglycaemia after treatment of 9.85 mM and a hyperglycaemia before treatment of 12.11 mM.

For the compound “arginine hemisuccinimide-metformin hemisuccinate”, in data set [3], the “antidiabetic activity compared with metformin alone” value was “significantly more active than the metformin alone”. Also, in the data set with hamster cheek pouch, the “effects on the microcirculation” value is on record as “reproduces at least the effects of the two active principles on the microcirculation”. Moreover, in data set [2], the hyperglycaemia after treatment is given as 7.56 mM and the hyperglycaemia before treatment worked out at 12.66 mM.
